Legend:
human PHD2 (PHD2181-417) = biological target: T1, human PHD2 (PHD2181-417) (Homo sapiens, UniProt Q9GZT9); assay: PHD enzymatic assay ([14C]-succinic acid production); assay type: biochemical; conditions: PHD2181-417, HIF-1α peptide 10 μM, average of results; read-out: Enzyme pIC50 (converted)
T1 construct: Smt (SUMO) tag (cleaved yes); made in house; host or cells: E. coli BL21 (pBAD vector)
Method in brief: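 Activity measured as [14C]-succinic acid formed from [5-14C]-2-oxoglutarate over 10 minutes, with peptide substrate at 10 μM, in Tris-HCl pH 7.5 buffer containing catalase, DTT and ascorbate. Unreacted oxoglutarate removed by DNP derivatisation; supernatant beta-counted.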

Hep-3B cells = assay: Cellular assay: erythropoietin secretion in Hep-3B cells; assay type: cell-based, human; conditions: Homo sapiens, Hep3B, 100 μM compound, 24 hours, percent of EPO secretion relative to assay control compound 7-[(4-Chloro-phenyl)-(5-methyl-isoxazol-3-ylamino)-methyl]-quinolin-8-ol, read-out: Cellular % EPO Stimulation
Method in brief: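 Hep-3B cells in DMEM with 10% FBS, treated 24 h after plating with compounds at 100 μM final for a further 24 h. Secreted EPO in supernatant measured by MSD electrochemiluminescence sandwich immunoassay with anti-EPO detection antibody.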

T1 sequence (Q9GZT9 181-417): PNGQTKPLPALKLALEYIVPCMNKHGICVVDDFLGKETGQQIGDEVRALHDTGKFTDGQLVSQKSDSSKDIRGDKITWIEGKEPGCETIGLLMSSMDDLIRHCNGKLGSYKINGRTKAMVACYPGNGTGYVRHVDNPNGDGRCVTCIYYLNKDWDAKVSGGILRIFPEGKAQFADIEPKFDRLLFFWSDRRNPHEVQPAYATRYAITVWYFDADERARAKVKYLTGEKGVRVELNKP

Row | IC50 (human PHD2 (PHD2181-417)) | SMILES | Emax at 100 µM (Hep-3B cells)
1 | 20 nM | O=C(O)c1cnn(-c2nc3cc(Cl)c(N4CCc5ccccc5C4)cc3c(=O)[nH]2)c1 [Example 84, 1-[7-Chloro-6-(3,4-dihydro-1H-isoquinolin-2-yl)-4-oxo-3,4-dihydro-quinazolin-2-yl]-1H-pyrazole-4-carboxylic acid] | 101%
2 | 25.1 nM | O=C(O)c1cnn(-c2nc3ccc(Oc4cccc(-c5ccccc5)c4)cc3c(=O)[nH]2)c1 [Example 99, 1-[6-(biphenyl-3-yloxy)-4-oxo-3,4-dihydro-quinazolin-2-yl]-1H-pyrazole-4-carboxylic acid] | 81%
3 | 31.6 nM | CCCc1ccc2nc(-n3cc(C(=O)O)cn3)[nH]c(=O)c2c1 [Example 129, 1-(4-Oxo-6-propyl-3,4-dihydro-quinazolin-2-yl)-1H-pyrazole-4-carboxylic acid] | 94%
4 | 20 nM | COc1cc(Oc2ccc3nc(-n4cc(C(=O)O)cn4)[nH]c(=O)c3c2)cc(OC)c1OC [Example 28, 1-[4-Oxo-6-(3,4,5-trimethoxy-phenoxy)-3,4-dihydro-quinazolin-2-yl]-1H-pyrazole-4-carboxylic acid] | 9%
5 | 15.8 nM | Cc1ccc(Oc2cc3c(=O)[nH]c(-n4cc(C(=O)O)cn4)nc3cc2F)cc1C [Example 88, 1-[6-(3,4-dimethyl-phenoxy)-7-fluoro-4-oxo-3,4-dihydro-quinazolin-2-yl]-1H-pyrazole-4-carboxylic acid] | 95%
6 | 20 nM | O=C(O)c1cnn(-c2nc3ccc(Oc4c(Cl)cccc4Cl)cc3c(=O)[nH]2)c1 [Example 38, 1-[6-(2,6-Dichloro-phenoxy)-4-oxo-3,4-dihydro-quinazolin-2-yl]-1H-pyrazole-4-carboxylic acid] | 91%
7 | 25.1 nM | O=C(O)c1cnn(-c2nc3ccc(Oc4ccc(F)cc4)cc3c(=O)[nH]2)c1 [Example 32, 1-[6-(4-Fluoro-phenoxy)-4-oxo-3,4-dihydro-quinazolin-2-yl]-1H-pyrazole-4-carboxylic acid] | 68%
8 | 31.6 nM | O=C(O)c1cnn(-c2nc3ccc(Oc4ccc(Cl)cc4)cc3c(=O)[nH]2)c1 [Example 46, 1-[6-(4-Chloro-phenoxy)-4-oxo-3,4-dihydro-quinazolin-2-yl]-1H-pyrazole-4-carboxylic acid] | 126%
9 | 25.1 nM | O=C(O)c1cnn(-c2nc3ccc(-c4ccc5c(c4)OCO5)cc3c(=O)[nH]2)c1 [Example 207, 1-(6-Benzo[1,3]dioxol-5-yl-4-oxo-3,4-dihydro-quinazolin-2-yl)-1H-pyrazole-4-carboxylic acid] | 84%
10 | 79.4 nM | O=C(O)c1cnn(-c2nc3cc(-c4ccccc4)ccc3c(=O)[nH]2)c1 [Example 184, 1-(4-Oxo-7-phenyl-3,4-dihydro-quinazolin-2-yl)-1H-pyrazole-4-carboxylic acid] | 12%
11 | 126 nM | O=C(O)c1cnn(-c2nc3c(-c4ccccc4)cccc3c(=O)[nH]2)c1 [Example 111, 1-(4-Oxo-8-phenyl-3,4-dihydro-quinazolin-2-yl)-1H-pyrazole-4-carboxylic acid] | 24%
12 | 158 nM | CCOc1ccc2c(=O)[nH]c(-n3cc(C(=O)O)cn3)nc2c1 [Example 152, 1-(7-Ethoxy-4-oxo-3,4-dihydro-quinazolin-2-yl)-1H-pyrazole-4-carboxylic acid] | 38%
13 | 631 nM | CN(C)c1cccc2nc(-n3cc(C(=O)O)cn3)[nH]c(=O)c12 [Example 151, 1-(5-Dimethylamino-4-oxo-3,4-dihydro-quinazolin-2-yl)-1H-pyrazole-4-carboxylic acid] | 11%
14 | 31.6 nM | O=C(O)c1cnn(-c2nc3cc(Cl)c(Oc4cccc5c4CCCC5)cc3c(=O)[nH]2)c1 [Example 55, 1-[7-Chloro-4-oxo-6-(5,6,7,8-tetrahydro-naphthalen-1-yloxy)-3,4-dihydro-quinazolin-2-yl]-1H-pyrazole-4-carboxylic acid] | 25%
15 | 35.5 nM | O=C(O)c1cnn(-c2nc3cc4c(cc3c(=O)[nH]2)OCCO4)c1 [Example 139, 1-(4-Oxo-3,4,7,8-tetrahydro-[1,4]dioxino[2,3-g]quinazolin-2-yl)-1H-pyrazole-4-carboxylic acid] | 15%
16 | 25.1 nM | Cc1cc2nc(-n3cc(C(=O)O)cn3)[nH]c(=O)c2cc1Oc1cc(Cl)ccc1Cl [Example 90, 1-[6-(2,5-dichloro-phenoxy)-7-methyl-4-oxo-3,4-dihydro-quinazolin-2-yl]-1H-pyrazole-4-carboxylic acid] | 113%
17 | 31.6 nM | O=C(O)c1cnn(-c2nc3cc(F)c(Oc4c(Cl)cccc4Cl)cc3c(=O)[nH]2)c1 [Example 50, 1-[6-(2,6-Dichloro-phenoxy)-7-fluoro-4-oxo-3,4-dihydro-quinazolin-2-yl]-1H-pyrazole-4-carboxylic acid] | 67%

Row | IC50 (human PHD2 (PHD2181-417)) | SMILES | Emax at 100 µM (Hep-3B cells)
18 | 794 nM | O=C(O)c1cnn(-c2nc3c(OC(F)(F)F)cccc3c(=O)[nH]2)c1 [Example 117, 1-(4-Oxo-8-trifluoromethoxy-3,4-dihydro-quinazolin-2-yl)-1H-pyrazole-4-carboxylic acid] | 12%
19 | 15.8 nM | Cc1ccc(CNc2ccc3nc(-n4cc(C(=O)O)cn4)[nH]c(=O)c3c2)cc1 [Example 183, 1-[6-(4-methyl-benzylamino)-4-oxo-3,4-dihydro-quinazolin-2-yl]-1H-pyrazole-4-carboxylic acid] | 89%
20 | 39.8 nM | O=C(O)c1cnn(-c2nc3ccc(N4CCCCC4)cc3c(=O)[nH]2)c1 [Example 124, 1-(4-Oxo-6-piperidin-1-yl-3,4-dihydro-quinazolin-2-yl)-1H-pyrazole-4-carboxylic acid] | 71%
21 | 20 nM | COc1ccc(Oc2ccc3nc(-n4cc(C(=O)O)cn4)[nH]c(=O)c3c2)cc1 [Example 41, 1-[6-(4-Methoxy-phenoxy)-4-oxo-3,4-dihydro-quinazolin-2-yl]-1H-pyrazole-4-carboxylic acid] | 112%
22 | 25.1 nM | Cc1cccc(-c2ccc3nc(-n4cc(C(=O)O)cn4)[nH]c(=O)c3c2)c1 [Example 190, 1-(4-Oxo-6-m-tolyl-3,4-dihydro-quinazolin-2-yl)-1H-pyrazole-4-carboxylic acid] | 91%
23 | 25.1 nM | O=C(O)c1cnn(-c2nc3ccc(-c4ccccc4F)cc3c(=O)[nH]2)c1 [Example 195, 1-[6-(2-Fluoro-phenyl)-4-oxo-3,4-dihydro-quinazolin-2-yl]-1H-pyrazole-4-carboxylic acid] | 100%
24 | 10 nM | CCOc1ccc2nc(-n3cc(C(=O)O)cn3)[nH]c(=O)c2c1 [Example 121, 1-(6-Ethoxy-4-oxo-3,4-dihydro-quinazolin-2-yl)-1H-pyrazole-4-carboxylic acid] | 30%
25 | 31.6 nM | CS(=O)(=O)c1ccc2nc(-n3cc(C(=O)O)cn3)[nH]c(=O)c2c1 [Example 157, 1-(6-Methanesulfonyl-4-oxo-3,4-dihydro-quinazolin-2-yl)-1H-pyrazole-4-carboxylic acid] | 17%
26 | 50.1 nM | CC(C)(C)c1ccc(S(=O)(=O)c2cc3c(=O)[nH]c(-n4cc(C(=O)O)cn4)nc3cc2Cl)cc1 [Example 72, 1-[6-(4-tert-Butyl-benzenesulfonyl)-7-chloro-4-oxo-3,4-dihydro-quinazolin-2-yl]-1H-pyrazole-4-carboxylic acid] | 22%
27 | 31.6 nM | O=C(O)c1cnn(-c2nc3ccc(SC(F)(F)F)cc3c(=O)[nH]2)c1 [Example 156, 1-(4-Oxo-6-trifluoromethylsulfanyl-3,4-dihydro-quinazolin-2-yl)-1H-pyrazole-4-carboxylic acid] | 19%
28 | 20 nM | Cc1ccc(-c2ccc3nc(-n4cc(C(=O)O)cn4)[nH]c(=O)c3c2)cc1 [Example 191, 1-(4-Oxo-6-p-tolyl-3,4-dihydro-quinazolin-2-yl)-1H-pyrazole-4-carboxylic acid] | 31%
29 | 158 nM | CN(C)c1ccc2c(=O)[nH]c(-n3cc(C(=O)O)cn3)nc2c1 [Example 150, 1-(7-Dimethylamino-4-oxo-3,4-dihydro-quinazolin-2-yl)-1H-pyrazole-4-carboxylic acid] | 24%
30 | 25.1 nM | Cc1cc2nc(-n3cc(C(=O)O)cn3)[nH]c(=O)c2cc1Oc1cccc(-c2ccccc2)c1 [Example 91, 1-[6-(biphenyl-3-yloxy)-7-methyl-4-oxo-3,4-dihydro-quinazolin-2-yl]-1H-pyrazole-4-carboxylic acid] | 75%
31 | 20 nM | Cc1cc2nc(-n3cc(C(=O)O)cn3)[nH]c(=O)c2cc1Oc1c(C)cccc1C [Example 27, 1-[6-(2,6-Dimethyl-phenoxy)-7-methyl-4-oxo-3,4-dihydro-quinazolin-2-yl]-1H-pyrazole-4-carboxylic acid] | 10%
32 | 63.1 nM | O=C(O)c1cnn(-c2nc3cc(F)cc(F)c3c(=O)[nH]2)c1 [Example 131, 1-(5,7-Difluoro-4-oxo-3,4-dihydro-quinazolin-2-yl)-1H-pyrazole-4-carboxylic acid] | 21%
33 | 25.1 nM | Cc1cc(C)cc(Oc2cc3c(=O)[nH]c(-n4cc(C(=O)O)cn4)nc3cc2C)c1 [Example 89, 1-[6-(3,5-dimethyl-phenoxy)-7-methyl-4-oxo-3,4-dihydro-quinazolin-2-yl]-1H-pyrazole-4-carboxylic acid] | 137%

Reference: patent US8937078B2, “Quinazolinones as prolyl hydroxylase inhibitors” (Janssen Pharmaceutica NV, priority 2009, dated 2015)
